Results as given in patent US6525001B1, “Substituted pyrimidine and pyridine herbicides” (Mid-American Commercialization Corporation, priority 1997, dated 2003).

Legend:
Assay type in all cases: in vivo
[1] = tested on: giant foxtail (Setaria faberii); experiment: Test B pre-/postemergence; set-up: key: 0 is no effect; 10 is complete control
Procedure, shortened: (§1)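 Compounds in a surfactant-containing, non-phytotoxic solvent blend are applied to freshly planted seed (preemergence) and, concurrently, to seedlings of 2 to 18 cm at 1–4 leaves (postemergence). Plants stay in the greenhouse twelve to sixteen days and are then scored visually from 0 (no effect) to 10 (complete control).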

[2] = tested on: purple nutsedge (Cyperus rotundus); experiment: Test B pre-/postemergence; set-up: key: 0 is no effect; 10 is complete control
Procedure, shortened: as §1

[3] = tested on: bamyardgrass (Echinochloa crus-galli); experiment: Test B flood test; set-up: key: 0 is no effect; 10 is complete control
Procedure, shortened: (§2)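 Read-out is a visual response score from 0 (no effect) to 10 (complete control), assigned by comparison with untreated controls. Treatment was applied at the 2-leaf stage, and plants stayed in the greenhouse for twelve to sixteen days before scoring.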

[4] = tested on: duck salad (Heteranthera limosa); experiment: Test B flood test; set-up: key: 0 is no effect; 10 is complete control
Procedure, shortened: as §2

rice (Oryza sativa) = experiment: Test B flood test; set-up: key: 0 is no effect; 10 is complete control
Procedure, shortened: as §2

[5] = tested on: smallflower flatsedge (Cyperus difformis); experiment: Test B flood test; set-up: key: 0 is no effect; 10 is complete control
Procedure, shortened: as §2

[6] = tested on: arrowleaf sida (Sida rhombifolia); experiment: Test C; set-up: key: 0 was no effect; 100 was complete control; conditions: PREEMERGENCE
corn (Zea mays) = experiment: Test C; set-up: key: 0 was no effect; 100 was complete control; conditions: PREEMERGENCE
[7] = tested on: eastern black nightshade (Solanum ptycanthum); experiment: Test C; set-up: key: 0 was no effect; 100 was complete control; conditions: PREEMERGENCE
[8] = tested on: giant foxtail (Setaria faberii); experiment: Test C; set-up: key: 0 was no effect; 100 was complete control; conditions: PREEMERGENCE
[9] = tested on: ivyleaf morningglory (Ipomoea hederacea); experiment: Test C; conditions: PREEMERGENCE
[10] = tested on: redroot pigweed (Amaranthus retroflexus); experiment: Test C; set-up: key: 0 was no effect; 100 was complete control; conditions: PREEMERGENCE
soybean (Glycine max) = experiment: Test C; set-up: key: 0 was no effect; 100 was complete control; conditions: PREEMERGENCE
[11] = tested on: surinam grass (Brachiaria decumbens); experiment: Test C; set-up: key: 0 was no effect; 100 was complete control; conditions: PREEMERGENCE
[12] = tested on: purple nutsedge (Cyperus rotundus); experiment: Test C; set-up: key: 0 was no effect; 100 was complete control; conditions: PREEMERGENCE
[13] = Rate 250 g/ha, Postemergence (so in the source)
[14] = Rate 62 g/ha, Postemergence (flood test)
[15] = Rate 125 g/ha, Postemergence, flood test
[16] = Rate 250 g/ha, Postemergence (flood test species)
[17] = Rate 125 g/ha, Postemergence section (flood test species)
[18] = Preemergence, Rate 62 g/ha, scale of 0 to 10
[19] = Rate 500 g/ha, Postemergence (flood test species)

## CCc1cnc(-n2ccc(C(F)(F)F)n2)nc1Cc1cccc(C(F)(F)F)c1 [Compound 46]
[1]; Rate 62 g/ha, Postemergence
  Plant response rating, Giant foxtail: 3
[1]; Rate 62 g/ha, Preemergence
  Giant foxtail plant response rating: 9
[1]; Rate 125 g/ha, Postemergence
  Giant foxtail plant response rating: 4
[1]; Rate 125 g/ha, Preemergence
  Giant foxtail plant response rating: 9
[1]; Rate 250 g/ha, Postemergence
  Plant response rating, Giant foxtail: 7
[1]; [13]
  Plant response rating, Giant foxtail: 10
[2]; Rate 62 g/ha, Postemergence
  Plant response rating, Nutsedge: 2
[2]; Rate 125 g/ha, Preemergence
  Nutsedge plant response rating: 0
[2]; [13]
  Plant response rating, Nutsedge: 0
[3]; [14]
  Plant response rating, Barnyardgrass: 2
[3]; [15]
  Plant response rating, Barnyardgrass: 3
[3]; [16]
  Plant response rating, Barnyardgrass: 4
[4]; [14]
  Plant response rating, Ducksalad: 1
[4]; [15]
  Plant response rating, Ducksalad: 1
[4]; [16]
  Plant response rating, Ducksalad: 4
Rice (Oryza sativa); [14]
  Plant response rating, Rice: 1
Rice (Oryza sativa); [17]
  Rice plant response rating: 2
Rice (Oryza sativa); [16]
  Plant response rating, Rice: 4
[5]; [14]
  Plant response rating, S. Flatsedge: 4
[5]; [17]
  S. Flatsedge plant response rating: 5
[5]; [16]
  Plant response rating, S. Flatsedge: 7
[6]; Rate 35 g/ha
  Plant response rating, Arrowleaf sida: 100
[6]; Rate 70 g/ha
  Plant response rating, Arrowleaf sida: 90
[6]; Rate 140 g/ha
  Plant response rating, Arrowleaf sida: 100
Corn (Zea mays); Rate 35 g/ha
  Plant response rating, Corn: 0
Corn (Zea mays); Rate 70 g/ha
  Plant response rating, Corn: 0
Corn (Zea mays); Rate 140 g/ha
  Plant response rating, Corn: 5
[7]; Rate 35 g/ha
  Plant response rating, E. blacknightsh: 80
[7]; Rate 70 g/ha
  Plant response rating, E. blacknightsh: 100
[7]; Rate 140 g/ha
  Plant response rating, E. blacknightsh: 100
[8]; Rate 35 g/ha
  Plant response rating, Giant foxtail: 100
[8]; Rate 70 g/ha
  Plant response rating, Giant foxtail: 100
[8]; Rate 140 g/ha
  Plant response rating, Giant foxtail: 100
[9]; Rate 35 g/ha
  Plant response rating, I. morningglory: 45
[9]; Rate 70 g/ha
  Plant response rating, I. morningglory: 50
[9]; Rate 140 g/ha
  Plant response rating, I. morningglory: 50
[10]; Rate 35 g/ha
  Plant response rating, Redroot pigweed: 70
[10]; Rate 70 g/ha
  Plant response rating, Redroot pigweed: 100
[10]; Rate 140 g/ha
  Plant response rating, Redroot pigweed: 100
Soybean (Glycine max); Rate 35 g/ha
  Plant response rating, Soybean: 0
Soybean (Glycine max); Rate 70 g/ha
  Plant response rating, Soybean: 0
Soybean (Glycine max); Rate 140 g/ha
  Plant response rating, Soybean: 20
[11]; Rate 35 g/ha
  Plant response rating, Surinam grass: 0
[11]; Rate 70 g/ha
  Plant response rating, Surinam grass: 5
[11]; Rate 140 g/ha
  Plant response rating, Surinam grass: 25

## Cc1cnc(-c2ccc(C(F)(F)F)cc2)nc1C(=O)c1ccc(C(F)(F)F)cc1 [Compound 74]
[1]; [18]
  Plant response rating, Giant foxtail: 0
[1]; Rate 62 g/ha, Postemergence
  Giant foxtail plant response rating: 0
[1]; Rate 125 g/ha, Postemergence
  Giant foxtail plant response rating: 0
[1]; Rate 125 g/ha, Preemergence
  Plant response rating, Giant foxtail: 0
[1]; Rate 250 g/ha, Postemergence
  Plant response rating, Giant foxtail: 1
[1]; Rate 250 g/ha, Preemergence
  Plant response rating, Giant foxtail: 0
[1]; Rate 500 g/ha, Postemergence
  Plant response rating, Giant foxtail: 1
[1]; Rate 500 g/ha, Preemergence
  Plant response rating, Giant foxtail: 0
[2]; [18]
  Plant response rating, Nutsedge: 0
[2]; Rate 62 g/ha, Postemergence
  Nutsedge plant response rating: 0
[2]; Rate 125 g/ha, Postemergence
  Nutsedge plant response rating: 0
[2]; Rate 125 g/ha, Preemergence
  Plant response rating, Nutsedge: 0
[2]; Rate 250 g/ha, Postemergence
  Plant response rating, Nutsedge: 0
[2]; Rate 250 g/ha, Preemergence
  Plant response rating, Nutsedge: 0
[2]; Rate 500 g/ha, Preemergence
  Plant response rating, Nutsedge: 0
[3]; [14]
  Barnyardgrass plant response rating: 0
[3]; [17]
  Barnyardgrass plant response rating: 0
[3]; [16]
  Plant response rating, Barnyardgrass: 0
[3]; [19]
  Plant response rating, Barnyardgrass: 0
[4]; [14]
  Ducksalad plant response rating: 0
[4]; [17]
  Ducksalad plant response rating: 0
[4]; [16]
  Plant response rating, Ducksalad: 0
[4]; [19]
  Plant response rating, Ducksalad: 0
Rice (Oryza sativa); [14]
  Rice plant response rating: 0
Rice (Oryza sativa); [17]
  Rice plant response rating: 0
Rice (Oryza sativa); [16]
  Plant response rating, Rice: 0
Rice (Oryza sativa); [19]
  Plant response rating, Rice: 0
[5]; [14]
  S. Flatsedge plant response rating: 0
[5]; [17]
  S. Flatsedge plant response rating: 0
[5]; [16]
  Plant response rating, S. Flatsedge: 0
[5]; [19]
  Plant response rating, S. Flatsedge: 0

## Cc1cnc(-c2ccc(C(F)(F)F)cc2)nc1C(=O)c1cccc(OC(F)(F)F)c1 [Compound 75]
[1]; [18]
  Plant response rating, Giant foxtail: 1
[1]; Rate 62 g/ha, Postemergence
  Giant foxtail plant response rating: 1
[1]; Rate 125 g/ha, Postemergence
  Giant foxtail plant response rating: 2
[1]; Rate 125 g/ha, Preemergence
  Plant response rating, Giant foxtail: 5
[1]; Rate 250 g/ha, Postemergence
  Plant response rating, Giant foxtail: 4
[1]; Rate 250 g/ha, Preemergence
  Plant response rating, Giant foxtail: 5
[1]; Rate 500 g/ha, Preemergence
  Plant response rating, Giant foxtail: 9
[2]; [18]
  Plant response rating, Nutsedge: 0
[2]; Rate 62 g/ha, Postemergence
  Nutsedge plant response rating: 0
[2]; Rate 125 g/ha, Postemergence
  Nutsedge plant response rating: 0
[2]; Rate 125 g/ha, Preemergence
  Plant response rating, Nutsedge: 0
[2]; Rate 250 g/ha, Postemergence
  Plant response rating, Nutsedge: 0
[2]; Rate 250 g/ha, Preemergence
  Plant response rating, Nutsedge: 0
[2]; Rate 500 g/ha, Preemergence
  Plant response rating, Nutsedge: 0
[3]; [14]
  Barnyardgrass plant response rating: 2
[3]; [17]
  Barnyardgrass plant response rating: 2
[3]; [16]
  Plant response rating, Barnyardgrass: 3
[4]; [14]
  Ducksalad plant response rating: 0
[4]; [17]
  Ducksalad plant response rating: 1
[4]; [16]
  Plant response rating, Ducksalad: 2
Rice (Oryza sativa); [14]
  Rice plant response rating: 1
Rice (Oryza sativa); [17]
  Rice plant response rating: 1
Rice (Oryza sativa); [16]
  Plant response rating, Rice: 1
[5]; [14]
  S. Flatsedge plant response rating: 0
[5]; [17]
  S. Flatsedge plant response rating: 0
[5]; [16]
  Plant response rating, S. Flatsedge: 1

## Cc1cnc(-c2ccc(C(F)(F)F)cc2)nc1Cc1cccc(C(F)(F)F)c1 [Example 1, 5-methyl-2-[4-(trifluoromethyl)phenyl]-4-[[3-(trifluoromethyl)phenyl]methyl]pyrimidine]
[1]; Rate 62 g/ha, Postemergence
  Plant response rating, Giant foxtail: 3
[1]; Rate 62 g/ha, Preemergence
  Giant foxtail plant response rating: 10
[1]; Rate 125 g/ha, Postemergence
  Plant response rating, Giant foxtail: 7
[1]; Rate 125 g/ha, Preemergence
  Giant foxtail plant response rating: 10
[1]; Rate 250 g/ha, Postemergence
  Plant response rating, Giant foxtail: 9
[1]; Rate 250 g/ha, Preemergence
  Plant response rating, Giant foxtail: 10
[1]; Rate 500 g/ha, Postemergence
  Plant response rating, Giant foxtail: 9
[1]; Rate 500 g/ha, Preemergence
  Plant response rating, Giant foxtail: 10
[2]; Rate 62 g/ha, Preemergence
  Nutsedge plant response rating: 0
[2]; Rate 125 g/ha, Preemergence
  Nutsedge plant response rating: 0
[2]; Rate 250 g/ha, Postemergence
  Plant response rating, Nutsedge: 1
[2]; Rate 500 g/ha, Postemergence
  Plant response rating, Nutsedge: 2
[2]; Rate 500 g/ha, Preemergence
  Plant response rating, Nutsedge: 1
[6]; Rate 35 g/ha
  Plant response rating, Arrowleaf sida: 85
[6]; Rate 70 g/ha
  Plant response rating, Arrowleaf sida: 95
[6]; Rate 140 g/ha
  Plant response rating, Arrowleaf sida: 100
Corn (Zea mays); Rate 35 g/ha
  Plant response rating, Corn: 5
Corn (Zea mays); Rate 70 g/ha
  Plant response rating, Corn: 10
Corn (Zea mays); Rate 140 g/ha
  Plant response rating, Corn: 10
[7]; Rate 35 g/ha
  Plant response rating, E. blacknightsh: 90
[7]; Rate 70 g/ha
  Plant response rating, E. blacknightsh: 90
[7]; Rate 140 g/ha
  Plant response rating, E. blacknightsh: 95
[8]; Rate 35 g/ha
  Plant response rating, Giant foxtail: 100
[8]; Rate 70 g/ha
  Plant response rating, Giant foxtail: 100
[8]; Rate 140 g/ha
  Plant response rating, Giant foxtail: 100
[9]; Rate 35 g/ha
  Plant response rating, I. morningglory: 15
[9]; Rate 70 g/ha
  Plant response rating, I. morningglory: 15
[9]; Rate 140 g/ha
  Plant response rating, I. morningglory: 20
[12]; Rate 35 g/ha
  Plant response rating, Purple nutsedge: 0
[12]; Rate 70 g/ha
  Plant response rating, Purple nutsedge: 0
[12]; Rate 140 g/ha
  Plant response rating, Purple nutsedge: 0
[10]; Rate 35 g/ha
  Plant response rating, Redroot pigweed: 100
[10]; Rate 70 g/ha
  Plant response rating, Redroot pigweed: 100
[10]; Rate 140 g/ha
  Plant response rating, Redroot pigweed: 100
Soybean (Glycine max); Rate 35 g/ha
  Plant response rating, Soybean: 0
Soybean (Glycine max); Rate 70 g/ha
  Plant response rating, Soybean: 0
Soybean (Glycine max); Rate 140 g/ha
  Plant response rating, Soybean: 0
[11]; Rate 35 g/ha
  Plant response rating, Surinam grass: 50
[11]; Rate 70 g/ha
  Plant response rating, Surinam grass: 90
[11]; Rate 140 g/ha
  Plant response rating, Surinam grass: 95
